Patent US20140128385A1 (NOVARTIS AG, priority 2011, published 2014)
Structures can show the parent of a compound that is named as a salt.

target: T1, BACE-2 (Homo sapiens, UniProt Q9Y5Z0); test: assay for inhibition of BACE-2; assay type: biochemical
T1 construct: Recombinant BACE-2 (extracellular domain, expressed in baculovirus and purified using standard methods); made in house
T1 sequence (Q9Y5Z0 63-473 limits assumed): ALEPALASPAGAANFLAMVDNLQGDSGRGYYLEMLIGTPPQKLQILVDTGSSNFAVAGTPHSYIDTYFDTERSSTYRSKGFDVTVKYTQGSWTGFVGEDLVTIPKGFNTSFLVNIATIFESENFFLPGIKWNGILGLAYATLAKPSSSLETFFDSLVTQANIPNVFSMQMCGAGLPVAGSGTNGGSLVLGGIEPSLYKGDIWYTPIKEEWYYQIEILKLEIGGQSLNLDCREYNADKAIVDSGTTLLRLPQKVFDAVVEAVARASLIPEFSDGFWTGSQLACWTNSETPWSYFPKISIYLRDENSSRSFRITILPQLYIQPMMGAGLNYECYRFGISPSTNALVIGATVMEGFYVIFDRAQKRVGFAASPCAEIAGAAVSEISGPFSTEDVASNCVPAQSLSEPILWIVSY

Compound	IC50
5-Bromo-pyridine-2-carboxylic acid[3-((S)-3-amino-5-difluoromethyl-2,5,6,7-tetrahydro-[1,4]oxazepin-5-yl)-4-fluoro-phenyl]-amide hydrochloride [Example 96]	44 nM
CC1(c2cccc(NC(=O)c3ccco3)c2)COCC(N)=N1 (centres unmarked) [Example 1, Furan-2-carboxylic acid [3-(5-amino-3-methyl-3,6-dihydro-2H-[1,4]oxazin-3-yl)-phenyl]-amide hydrochloride]	61 nM
CC1(c2cccc(NC(=O)c3ccc(Br)cn3)c2)COCC(N)=N1 (centres unmarked) [Example 2, 5-Bromo-pyridine-2-carboxylic acid [3-(5-amino-3-methyl-3,6-dihydro-2H-[1,4]oxazin-3-yl)-phenyl]-amide hydrochloride]	87 nM
C[C@@]1(c2cccc(NC(=O)c3ccc(Br)cn3)c2)COCC(N)=N1 [Example 3, 5-Bromo-pyridine-2-carboxylic acid [3-((R)-5-amino-3-methyl-3,6-dihydro-2H-[1,4]oxazin-3-yl)-phenyl]-amide hydrochloride]	56 nM
C[C@]1(c2cccc(NC(=O)c3ccc(Br)cn3)c2)COCC(N)=N1 [Example 4, 5-Bromo-pyridine-2-carboxylic acid [3-((S)-5-amino-3-methyl-3,6-dihydro-2H-[1,4]oxazin-3-yl)-phenyl]-amide hydrochloride]	> 10000 nM
Cc1nc(C(=O)Nc2cccc(C3(C)COCC(N)=N3)c2)co1 (centres unmarked) [Example 5, 2-Methyl-oxazole-4-carboxylic acid [3-(5-amino-3-methyl-3,6-dihydro-2H-[1,4]oxazin-3-yl)-phenyl]-amide hydrochloride]	373 nM
Cc1cnc(C(=O)Nc2cccc(C3(C)COCC(N)=N3)c2)cn1 (centres unmarked) [Example 6, 5-Methyl-pyrazine-2-carboxylic acid [3-(5-amino-3-methyl-3,6-dihydro-2H-[1,4]oxazin-3-yl)-phenyl]-amide hydrochloride]	3440 nM
CC1(c2cccc(NC(=O)c3ncc(Br)cn3)c2)COCC(N)=N1 (centres unmarked) [Example 7, 5-Bromo-pyrimidine-2-carboxylic acid [3-(5-amino-3-methyl-3,6-dihydro-2H-[1,4]oxazin-3-yl)-phenyl]-amide hydrochloride]	309 nM
CC1(c2cccc(NC(=O)c3cn4ccccc4n3)c2)COCC(N)=N1 (centres unmarked) [Example 8, Imidazo[1,2-a]pyridine-2-carboxylic acid [3-(5-amino-3-methyl-3,6-dihydro-2H-[1,4]oxazin-3-yl)-phenyl]-amide hydrochloride]	7230 nM
CC1(c2cccc(NC(=O)c3ncccc3F)c2)COCC(N)=N1 (centres unmarked) [Example 9, 3-Fluoro-pyridine-2-carboxylic acid [3-(5-amino-3-methyl-3,6-dihydro-2H-[1,4]oxazin-3-yl)-phenyl]-amide hydrochloride]	663 nM
Cc1nc(C(=O)Nc2cccc(C3(C)COCC(N)=N3)c2)c(C)o1 (centres unmarked) [Example 10, 2,5-Dimethyl-oxazole-4-carboxylic acid [3-(5-amino-3-methyl-3,6-dihydro-2H-[1,4]oxazin-3-yl)-phenyl]-amide hydrochloride]	289 nM
Cc1nc(C(=O)Nc2cccc(C3(C)COCC(N)=N3)c2)cs1 (centres unmarked) [Example 11, 2-Methyl-thiazole-4-carboxylic acid [3-(5-amino-3-methyl-3,6-dihydro-2H-[1,4]oxazin-3-yl)-phenyl]-amide hydrochloride]	1060 nM
CC1(c2cccc(NC(=O)c3ccc(O)nn3)c2)COCC(N)=N1 (centres unmarked) [Example 12, 6-Hydroxy-pyridazine-3-carboxylic acid [3-(5-amino-3-methyl-3,6-dihydro-2H-[1,4]oxazin-3-yl)-phenyl]-amide hydrochloride]	2260 nM

More lines, now with the values ahead:

IC50	Compound
1250 nM	CCC1C(N)=NC(C)(c2cccc(NC(=O)c3ccc(Br)cn3)c2)C(=O)N1C (mixture of isomers) [Example 200, 5-Bromo-pyridine-2-carboxylic acid [3-(6-amino-5-ethyl-2,4-dimethyl-3-oxo-2,3,4,5-tetrahydro-pyrazin-2-yl)-phenyl]-amide]
41 nM	Cc1cc(C#N)cnc1C(=O)Nc1ccc(F)c(C2(C)COC(CF)(CF)C(N)=N2)c1 (racemic) [Example 251, 5-Cyano-3-methyl-pyridine-2-carboxylic acid [3-(5-amino-6,6-bis-fluoromethyl-3-methyl-3,6-dihydro-2H-[1,4]oxazin-3-yl)-4-fluoro-phenyl]-amide]
363 nM	CC1(c2cccc(NC(=O)c3ccc(Br)cn3)n2)COCC(N)=N1 (racemic) [Example 258, 5-Bromo-pyridine-2-carboxylic acid [6-(5-amino-3-methyl-3,6-dihydro-2H-[1,4]-oxazin-3-yl)-pyridin-2-yl]-amide]
6 nM	C[C@@]1(c2cccc(NC(=O)c3ccc(Br)cn3)c2)CO[C@@](C)(C(F)(F)F)C(N)=N1 (relative stereo) [Example 66, 5-Bromo-pyridine-2-carboxylic acid [3-((3R*,6R*)-5-amino-3,6-dimethyl-6-trifluoromethyl-3,6-dihydro-2H-[1,4]oxazin-3-yl)-phenyl]-amide hydrochloride]
355 nM	C[C@H]1OC[C@](c2cc(NC(=O)c3ccc(C#N)cn3)ccc2F)(C(F)F)N=C1N (relative stereo) [Example 75, 5-Cyano-pyridine-2-carboxylic acid [3-((3R*,6R*)-5-amino-3-difluoromethyl-6-methyl-3,6-dihydro-2H-[1,4]oxazin-3-yl)-4-fluoro-phenyl]-amide hydrochloride]
175 nM	C[C@@H]1OC[C@](c2cc(NC(=O)c3ccc(C#N)cn3)ccc2F)(C(F)F)N=C1N (relative stereo) [Example 76, 5-Cyano-pyridine-2-carboxylic acid [3-((3R*,6S*)-5-amino-3-difluoromethyl-6-methyl-3,6-dihydro-2H-[1,4]oxazin-3-yl)-4-fluoro-phenyl]-amide hydrochloride]
42 nM	C[C@H]1OC[C@](c2cc(NC(=O)c3ccc(Br)cn3)ccc2F)(C(F)F)N=C1N (relative stereo) [Example 77, 5-Bromo-pyridine-2-carboxylic acid [3-((3R*,6R*)-5-amino-3-difluoromethyl-6-methyl-3,6-dihydro-2H-[1,4]oxazin-3-yl)-4-fluoro-phenyl]-amide hydrochloride]
22 nM	C[C@@H]1OC[C@](c2cc(NC(=O)c3ccc(Br)cn3)ccc2F)(C(F)F)N=C1N (relative stereo) [Example 78, 5-Bromo-pyridine-2-carboxylic acid [3-((3R*,6S*)-5-amino-3-difluoromethyl-6-methyl-3,6-dihydro-2H-[1,4]oxazin-3-yl)-4-fluoro-phenyl]-amide hydrochloride]
116 nM	Cc1cc(OC(F)F)cnc1C(=O)Nc1ccc(F)c([C@]2(C(F)F)CNCC(N)=N2)c1 (single isomer, unassigned) [Example 212]
115 nM	COc1cnc(C(=O)Nc2ccc(F)c([C@]3(C(F)F)CNCC(N)=N3)c2)c(N)n1 (single isomer, unassigned) [Example 213]
33 nM	Cc1cc(C#N)cnc1C(=O)Nc1ccc(F)c([C@]2(C)COC(CF)(CF)C(N)=N2)c1 (single isomer, unassigned) [Example 252]
431 nM	CC1(c2cccc(NC(=O)c3ccccn3)c2)COCC(N)=N1 (centres unmarked) [Example 13, Pyridine-2-carboxylic acid [3-(5-amino-3-methyl-3,6-dihydro-2H-[1,4]oxazin-3-yl)-phenyl]-amide hydrochloride]
335 nM	CC1(c2cccc(NC(=O)c3ccc(C#N)cn3)c2)COCC(N)=N1 (centres unmarked) [Example 14, 5-Cyano-pyridine-2-carboxylic acid [3-(5-amino-3-methyl-3,6-dihydro-2H-[1,4]oxazin-3-yl)-phenyl]-amide hydrochloride]
6590 nM	CC1(c2cccc(NC(=O)c3cnc(-n4ccc(C(F)(F)F)n4)cn3)c2)COCC(N)=N1 (centres unmarked) [Example 15, 5-(3-Trifluoromethyl-pyrazol-1-yl)-pyrazine-2-carboxylic acid [3-(5-amino-3-methyl-3,6-dihydro-2H-[1,4]oxazin-3-yl)-phenyl]-amide hydrochloride]
694 nM	CC1(c2cccc(NC(=O)c3ncc(C(F)(F)F)cc3Cl)c2)COCC(N)=N1 (centres unmarked) [Example 17, 3-Chloro-5-trifluoromethyl-pyridine-2-carboxylic acid [3-(5-amino-3-methyl-3,6-dihydro-2H-[1,4]oxazin-3-yl)-phenyl]-amide hydrochloride]
1660 nM	COc1cnc(C(=O)Nc2cccc(C3(C)COCC(N)=N3)c2)cn1 (centres unmarked) [Example 18, 5-Methoxy-pyrazine-2-carboxylic acid [3-(5-amino-3-methyl-3,6-dihydro-2H-[1,4]oxazin-3-yl)-phenyl]-amide hydrochloride]
3180 nM	CC1(c2cccc(NC(=O)c3cnc(O)cn3)c2)COCC(N)=N1 (centres unmarked) [Example 19]
226 nM	CC1(c2cccc(NC(=O)c3cc(Br)co3)c2)COCC(N)=N1 (centres unmarked) [Example 20, 4-Bromo-furan-2-carboxylic acid [3-(5-amino-3-methyl-3,6-dihydro-2H-[1,4]oxazin-3-yl)-phenyl]-amide hydrochloride]
1500 nM	CC1(c2cccc(NC(=O)c3ccc(C(F)(F)F)cn3)c2)COCC(N)=N1 (centres unmarked) [Example 22, 5-Trifluoromethyl-pyridine-2-carboxylic acid [3-(5-amino-3-methyl-3,6-dihydro-2H-[1,4]oxazin-3-yl)-phenyl]-amide hydrochloride]
